Read-outs that look alike come from different tables or passages of the source.
Legend:
clone 29 protein (rERβ) [1] = biological target: T1, clone 29 protein (rERβ) (Rattus norvegicus, UniProt Q62986); experiment: Ligand competition studies against [3H]E2, clone 29 protein in reticulocyte lysate; assay type: binding; set-up: The open reading frame encodes a protein of 485 amino acid residues (counted from the first methionine); conditions: for times less effective as competitor (compared with unlabelled E2): 5 nM [3H]E2, 16 h at 8° C.; for efficient competition with [3H]E2 for binding: 5 nM [3H]E2, highest concentrations used (1000 fold excess)
Excerpt: Bound and unbound steroids were separated with a dextran-coated charcoal assay (Ekman, P., Barrack, E. R., Greene, G. L., Jensen, E. V., & Walsh, P. C. (1983) J. Clin. Endocrinol Metab. 57, 166–176).

clone 29 protein (rERβ) [2] = biological target: T1, clone 29 protein (rERβ); experiment: Transactivation analysis in CHO-cells (ERE-ALP reporter, clone 29 expression vector); assay type: cell-based; set-up: The open reading frame encodes a protein of 485 amino acid residues (counted from the first methionine); expressed in transfected cells; host or cells: CHO-K1 cells transiently transfected with pCMV29 and pERE-ALP; conditions: for stimulation of transcriptional activity of clone 29 protein: highest concentration tested 1000 nM
Excerpt: The expression vector pCMV29 was constructed by inserting the 2.6 kb clone 29 fragment in the EcoRI site of the expression vector pCMV5 (Andersson, S., Davis, D.L., Dahlbäck, H., Jörnvall, H., & Russell, D.W. (1989) J. Biol. Chem. 264, 8222–8229). The pERE-ALP reporter construct contains a secreted form of the plancental alkaline phosphatase gene (Berger, J., Hauber, J., Hauber, R., Geiger, R., & Cullen, B.R. (1988) Gene 66 1–10) and the MMTV-LTR in which the glucocorticoid response elements were replaced by the vitellogenin promoter estrogen response element (ERE). The vector pCMV29 containing the clone 29 fragment was deposited with NCIMB, Ferguson Building, Craibstone Estate, Bucksburn, Aberdeen, Scotland, UK AB21 9YA in accordance with the Budapest Treaty on the International Recognition of the Deposit of Microorganisms for the Purposes of Patent Procedure on 26 May 2006, under accession No. NCIMB 41404. The deposit was named “Escherichia coli DH5 prat ER (CmV29)”. All restrictions on the availability to the public of the material deposited will be irrevocably removed upon the granting of a patent.
CHO-K1 cells were seeded in 12-well plates at approximately 1.7×10^5 cells per well in phenol-red free Ham F12 medium with 5% FCS (dextran-coated charcoal treated) and 2 mM Lglutamine. After 24 h the cells were transfected with 250 ng pERE-ALP vector and 50 ng pCMV29 using lipofectamine (Gibco) according to the manufacturer's instructions. After five hours of incubation the cells were washed and refed with 0.5 ml phenol-red free Coon's F-12 medium containing 5% serum substitute (SRC 3000, Tissue Culture Services Ltd., Botolph Claydon, Buckingham, UK) 2 mM Lglutamine and 50 μg/ml gentamicin plus hormones as indicated. After 48 h the medium was assayed for alkaline phosphatase (ALP) activity by a chemiluminescence assay. A 10 μl aliquot of the cell culture medium was mixed with 200 μl assay buffer (10 mM diethanolamine pH 10.0 1 mM MgCl2 and 0.5 mM CSPD (Tropix Inc. Boston, USA) ) and incubated for 20 min at 37° C. before measurement in a microplate luminometer (Luminoskan; Labsystems, Finland) with integral measurement for 1 second. The ALP activity of ERE-reporter alone was set at 1.
To investigate the transcriptional regulatory properties of clone 29 protein, we performed co-transfection experiments in which CHO cells were transfected with a clone 29 protein expression vector and/or an estrogen-responsive reporter gene construct. […] CHO-cells were transiently transfected with the ERE-reporter plasmid and the clone 29 protein expression plasmid. […] Alkaline phosphatase activity (ALP) was measured as described and the activity in the absence of ligand (control) was set at 1.

rERβ = biological target: T2, rERβ (Rattus norvegicus, UniProt Q62986); experiment: Equilibrium binding saturation experiments with [125I]-E2, rERβ
T2 construct: Clone 29 protein consists of 485 amino acid residues; made in house; host or cells: rabbit reticulocyte lysate in vitro translation (Promega)
Excerpt: Equilibrium binding saturation experiments (Kd-determinations)

T1 sequence (Q62986 46-530): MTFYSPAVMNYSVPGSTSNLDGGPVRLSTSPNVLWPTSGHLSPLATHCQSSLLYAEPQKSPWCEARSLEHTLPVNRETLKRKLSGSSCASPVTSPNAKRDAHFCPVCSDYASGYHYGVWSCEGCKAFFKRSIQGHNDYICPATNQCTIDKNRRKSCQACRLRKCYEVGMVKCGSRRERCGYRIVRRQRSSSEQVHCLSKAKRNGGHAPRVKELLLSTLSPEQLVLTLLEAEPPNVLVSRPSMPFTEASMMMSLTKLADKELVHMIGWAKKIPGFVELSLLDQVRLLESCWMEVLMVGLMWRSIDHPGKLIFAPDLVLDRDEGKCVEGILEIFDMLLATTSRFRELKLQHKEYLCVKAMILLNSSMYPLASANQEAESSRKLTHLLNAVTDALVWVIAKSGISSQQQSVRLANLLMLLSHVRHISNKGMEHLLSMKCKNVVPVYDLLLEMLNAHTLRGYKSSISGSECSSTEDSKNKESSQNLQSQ
T2 sequence (Q62986 46-530): as above

C[C@]12CC[C@@H]3c4ccc(O)cc4CC[C@H]3[C@@H]1C[C@@H](O)[C@@H]2O [estriol] was tested, and the “times less effective as competitor (compared with unlabelled E2)” value (clone 29 protein (rERβ) [1]) was 15 times.

In the case of CCCCN(C)C(=O)CCCCCCCCCC[C@@H]1Cc2cc(O)ccc2[C@H]2CC[C@]3(C)[C@@H](O)CC[C@H]3[C@H]12 [ICI-1624384], the “suppression of the constitutive transcriptional activity of clone 29 protein” value (clone 29 protein (rERβ) [2]; no E2 added, not shown) is reported as “could be suppressed”.

For C[C@]12CC[C@@H]3c4ccc(O)cc4CC[C@H]3[C@@H]1C[C@@H](I)[C@@H]2O [[^125I]-E2, 16α[^125I]-17β-estradiol], the Kd (rERβ; read-out: Kd (Hill-plot)) was 240 pM and the Kd (rERβ; read-out: Kd (Scatchard-plot)) was 420 pM.

In the case of C[C@]12CC[C@H]3[C@@H](CCC4=CC(=O)CC[C@@]43C)[C@@H]1CC[C@@H]2O [testosterone], the “efficient competition with [3H]E2 for binding” value (“efficient competition” for short) (clone 29 protein (rERβ) [1]) is reported as “Neither testosterone, progesterone, corticosterone nor 5α-androstane-3α,17β-diol were efficient competitors” and the “stimulation of transcriptional activity of clone 29 protein” value (“stimulation” for short) (clone 29 protein (rERβ) [2]) is reported as “could not stimulate transcriptional activity”.

C[C@]12C[C@H](O)[C@H]3[C@@H](CCC4=CC(=O)CC[C@@]43C)[C@@H]1CC[C@@H]2C(=O)CO [corticosterone] was tested, and the “efficient competition” value (clone 29 protein (rERβ) [1]) was “Neither testosterone, progesterone, corticosterone nor 5α-androstane-3α,17β-diol were efficient competitors”.

For C[C@]12CC[C@@H](O)C[C@@H]1CC[C@@H]1[C@@H]2CC[C@]2(C)[C@@H](O)CC[C@@H]12 [5α-androstane-3α,17β-diol], the “times less effective as competitor (compared with unlabelled E2)” value (clone 29 protein (rERβ) [1]) was 150 times, the “efficient competition” value (clone 29 protein (rERβ) [1]) was “Neither testosterone, progesterone, corticosterone nor 5α-androstane-3α,17β-diol were efficient competitors” and the “stimulation” value (clone 29 protein (rERβ) [2]) was “could not stimulate transcriptional activity”.

With CC/C(=C(/CC)c1ccc(O)cc1)c1ccc(O)cc1 [diethylstilbestrol] the “times less effective as competitor (compared with unlabelled E2)” value (clone 29 protein (rERβ) [1]) was 5 times.

In the case of CC(=O)[C@H]1CC[C@H]2[C@@H]3CCC4=CC(=O)CC[C@]4(C)[C@H]3CC[C@]12C [progesterone], the “efficient competition” value (clone 29 protein (rERβ) [1]) is reported as “Neither testosterone, progesterone, corticosterone nor 5α-androstane-3α,17β-diol were efficient competitors” and the “stimulation” value (clone 29 protein (rERβ) [2]) is reported as “could not stimulate transcriptional activity”.

For C[C@]12CC[C@H](O)C[C@@H]1CC[C@@H]1[C@@H]2CC[C@]2(C)[C@@H](O)CC[C@@H]12 [5α-androstane-3β,17β-diol], the “stimulation” value (clone 29 protein (rERβ) [2]) was “could stimulate transcriptional activity, albeit at higher concentrations”.
